In ChEMBL document CHEMBL1914283, “Synthesis and evaluation of pyridazinone-phenethylamine derivatives as selective and orally bioavailable histamine H3 receptor antagonists with robust wake-promoting activity” (Bioorg Med Chem Lett, 2011):
Active and inactive are the calls of the source. No cut-off for these calls is given here.

How the values were obtained:
[1] = biological target: T1, Histamine H3 receptor (Homo sapiens, UniProt Q9Y5N1); test: Displacement of [3H]NAMH from human H3R expressed in CHO cells; assay type: cell-based
Target sequence in this assay (Q9Y5N1 whole entry): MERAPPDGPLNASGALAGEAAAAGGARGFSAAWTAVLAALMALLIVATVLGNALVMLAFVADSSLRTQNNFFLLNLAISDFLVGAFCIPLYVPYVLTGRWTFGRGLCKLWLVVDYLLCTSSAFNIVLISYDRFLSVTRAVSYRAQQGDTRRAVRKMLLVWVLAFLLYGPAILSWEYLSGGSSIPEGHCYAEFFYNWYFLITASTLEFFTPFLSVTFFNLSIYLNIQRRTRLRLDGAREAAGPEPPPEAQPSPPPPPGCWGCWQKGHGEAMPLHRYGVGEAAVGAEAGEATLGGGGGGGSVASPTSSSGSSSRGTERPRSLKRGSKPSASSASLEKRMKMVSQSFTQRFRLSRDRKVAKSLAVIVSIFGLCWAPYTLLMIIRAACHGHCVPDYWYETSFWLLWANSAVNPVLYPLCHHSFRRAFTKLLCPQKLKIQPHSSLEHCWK

[2] = biological target: Histamine H3 receptor (Rattus norvegicus, UniProt Q9QYN8); test: Displacement of [3H]NAMH from rat H3R expressed in CHO cells; assay type: cell-based
[3] = Metabolic stability in human liver microsomes assessed as half life; assay type: ADME, Microsome
[4] = biological target: T1, Histamine H3 receptor; test: Antagonist activity at human H3R expressed in CHO cells assessed as inhibition of R-alpha-methylhistamine-induced [35S]GTPgammaS binding
Target sequence in this assay (Q9Y5N1 whole entry, looked up): as the sequence (Q9Y5N1 whole entry) above

[5] = system: Rattus norvegicus; test: Wake promoting activity in Sprague-Dawley rat EEG/EMG model assessed as sleep rebound at 3 to 30 mg/kg, ip; assay type: functional, organism-based
[6] = system: Rattus norvegicus; test: Inhibition of R-alpha-methylhistamine-induced water intake in ip dosed rat dipsogenia model; assay type: functional
[7] = system: Rattus norvegicus; test: Wake promoting activity in Sprague-Dawley rat EEG/EMG model assessed as increase in cumulative wake time at 30 mg/kg, ip relative to vehicle treated animals; assay type: functional; conditions: route intraperitoneal
[8] = biological target: T2, Cytochrome P450 1A2 (Homo sapiens, UniProt P05177); test: Inhibition of CYP1A2; assay type: ADME
T2 sequence (P05177 whole entry): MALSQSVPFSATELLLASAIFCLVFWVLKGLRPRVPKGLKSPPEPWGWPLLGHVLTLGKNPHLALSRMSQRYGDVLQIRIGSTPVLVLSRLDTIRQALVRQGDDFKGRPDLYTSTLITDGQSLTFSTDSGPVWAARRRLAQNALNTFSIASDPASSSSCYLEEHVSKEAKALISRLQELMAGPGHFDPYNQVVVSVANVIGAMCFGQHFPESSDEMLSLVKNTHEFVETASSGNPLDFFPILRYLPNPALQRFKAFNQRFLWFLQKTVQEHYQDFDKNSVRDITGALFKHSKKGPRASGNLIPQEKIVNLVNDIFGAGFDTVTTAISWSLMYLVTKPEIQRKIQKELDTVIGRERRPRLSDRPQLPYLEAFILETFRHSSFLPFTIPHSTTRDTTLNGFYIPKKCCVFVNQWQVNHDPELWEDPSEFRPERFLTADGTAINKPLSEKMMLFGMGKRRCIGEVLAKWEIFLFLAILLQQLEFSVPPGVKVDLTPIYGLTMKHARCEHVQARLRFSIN

[9] = biological target: Cytochrome P450 2C19 (Homo sapiens, UniProt P33261); test: Inhibition of CYP2C19; assay type: ADME
[10] = system: Rattus norvegicus; test: Toxicity in Sprague-Dawley rat EEG/EMG model assessed as EEG abnormality at 3 to 30 mg/kg, ip; assay type: organism-based; parameters: dose 3-30 mg/kg, route intraperitoneal; conditions: in vivo
[11] = Metabolic stability in dog liver microsomes assessed as half life; assay type: ADME, Canis lupus familiaris, Microsome
[12] = biological target: Histamine H1 receptor (Homo sapiens) (UniProt P35367); test: Inhibition of human H1R at 10 uM
[13] = biological target: Cytochrome P450 2C9 (Homo sapiens, UniProt P11712); test: Inhibition of CYP2C9; assay type: ADME
[14] = system: Rattus norvegicus; test: Wake promoting activity in ip dosed Sprague-Dawley rat EEG/EMG model assessed as cumulative wake time; assay type: functional, organism-based
[15] = system: Rattus norvegicus; test: Wake promoting activity in Sprague-Dawley rat EEG/EMG model assessed as cumulative wake time at 30 mg/kg, ip; assay type: functional; conditions: route intraperitoneal
[16] = biological target: T1, Histamine H3 receptor; test: Inverse agonist activity at human H3R expressed in CHO cells assessed as inhibition of R-alpha-methylhistamine-induced [35S]GTPgammaS binding; assay type: functional, cell-based
Target sequence in this assay (Q9Y5N1 whole entry): as the sequence (Q9Y5N1 whole entry) above

[17] = Ratio of drug level from brain to plasma of rat at 10 mg/kg, ip after 1 hr; assay type: ADME, organism-based; parameters: dose 10 mg/kg, route intraperitoneal; conditions: read-out: BPR
[18] = AUC (0 to infinity) in rat at 1 mg/kg, iv; assay type: ADME, organism-based; parameters: time infinity, dose 1 mg/kg, route intravenous; conditions: plasma
[19] = Volume of distribution in rat at 1 mg/kg, iv; assay type: ADME, organism-based; parameters: dose 1 mg/kg, route intravenous; conditions: in vivo
[20] = Half life in rat at 1 mg/kg, iv; assay type: ADME, organism-based; parameters: dose 1 mg/kg, route intravenous; conditions: in vivo
[21] = system: Rattus norvegicus; test: Wake promoting activity in Sprague-Dawley rat EEG/EMG model assessed as increase in cumulative wake time at 30 mg/kg, ip up to 4.5 hrs; assay type: functional, organism-based; parameters: dose 30 mg/kg
[22] = Metabolic stability in mouse liver microsomes assessed as half life; assay type: ADME, Microsome
[23] = AUC (0 to infinity) in rat at 5 mg/kg, po; assay type: ADME, organism-based; parameters: time infinity, dose 5 mg/kg, route oral; conditions: plasma
[24] = biological target: Cytochrome P450 2D6 (Homo sapiens, UniProt P10635); test: Inhibition of CYP2D6; assay type: ADME
[25] = Cmax in rat at 5 mg/kg, po; assay type: ADME, organism-based; parameters: dose 5 mg/kg, route oral; conditions: in vivo
[26] = system: Rattus norvegicus; test: Wake promoting activity in Sprague-Dawley rat EEG/EMG model assessed as cumulative wake time at 10 mg/kg, ip; assay type: functional; conditions: route intraperitoneal
[27] = biological target: T1, Histamine H3 receptor; test: Antagonist activity at human H3R expressed in CHO cells assessed as inhibition of R-alpha-methylhistamine-induced [35S]GTPgammaS binding; assay type: functional, cell-based
Target sequence in this assay (Q9Y5N1 whole entry): as the sequence (Q9Y5N1 whole entry) above

[28] = biological target: Cytochrome P450 3A4 (Homo sapiens, UniProt P08684); test: Inhibition of CYP3A4; assay type: ADME
[29] = biological target: Histamine H2 receptor (Homo sapiens) (UniProt P25021); test: Inhibition of human H2R at 10 uM
[30] = Clearance in rat at 1 mg/kg, iv; assay type: ADME, organism-based; parameters: dose 1 mg/kg, route intravenous; conditions: in vivo
[31] = Oral bioavailability in rat at 5 mg/kg; assay type: ADME, organism-based; conditions: in vivo
[32] = system: Rattus norvegicus; test: Wake promoting activity in Sprague-Dawley rat EEG/EMG model assessed as cumulative wake time at 30 mg/kg, ip after 7 hrs; assay type: functional; conditions: route intraperitoneal
[33] = biological target: Histamine H4 receptor (Homo sapiens) (UniProt Q9H3N8); test: Inhibition of human H4R at 10 uM
[34] = Metabolic stability in rat liver microsomes assessed as half life; assay type: ADME, Microsome
[35] = system: Rattus norvegicus; test: Wake promoting activity in Sprague-Dawley rat EEG/EMG model assessed as increase in cumulative wake time at 30 mg/kg, ip up to 4 hrs; assay type: functional; conditions: route intraperitoneal

Chain of Histamine H3 receptor (Rattus norvegicus, UniProt Q9QYN8) (Q9QYN8 whole entry): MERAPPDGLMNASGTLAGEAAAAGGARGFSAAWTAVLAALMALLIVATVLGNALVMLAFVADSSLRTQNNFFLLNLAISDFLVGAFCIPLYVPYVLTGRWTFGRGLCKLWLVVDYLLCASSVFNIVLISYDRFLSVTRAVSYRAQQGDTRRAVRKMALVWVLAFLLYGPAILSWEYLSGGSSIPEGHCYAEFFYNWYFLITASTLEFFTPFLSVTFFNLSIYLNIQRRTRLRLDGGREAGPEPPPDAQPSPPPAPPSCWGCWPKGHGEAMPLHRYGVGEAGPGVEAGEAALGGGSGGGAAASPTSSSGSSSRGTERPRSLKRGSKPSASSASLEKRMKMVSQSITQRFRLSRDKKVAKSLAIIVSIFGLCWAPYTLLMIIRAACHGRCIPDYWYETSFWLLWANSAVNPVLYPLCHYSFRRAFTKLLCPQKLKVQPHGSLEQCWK
Chain of Histamine H1 receptor (Homo sapiens) (P35367 whole entry): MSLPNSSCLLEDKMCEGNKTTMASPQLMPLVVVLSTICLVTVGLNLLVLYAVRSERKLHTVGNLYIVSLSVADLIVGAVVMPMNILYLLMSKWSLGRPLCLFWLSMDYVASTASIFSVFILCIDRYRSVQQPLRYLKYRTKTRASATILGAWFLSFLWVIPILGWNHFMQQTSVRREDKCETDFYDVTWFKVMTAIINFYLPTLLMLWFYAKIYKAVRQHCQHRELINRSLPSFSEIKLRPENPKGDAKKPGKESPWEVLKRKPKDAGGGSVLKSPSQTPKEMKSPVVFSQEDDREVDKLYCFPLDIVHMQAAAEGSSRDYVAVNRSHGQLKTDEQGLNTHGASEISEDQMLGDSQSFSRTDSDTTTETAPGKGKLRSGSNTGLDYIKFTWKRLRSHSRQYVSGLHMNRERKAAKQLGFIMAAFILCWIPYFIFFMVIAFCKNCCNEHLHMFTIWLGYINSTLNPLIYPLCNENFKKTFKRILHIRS
Chain of Cytochrome P450 3A4 (P08684 whole entry): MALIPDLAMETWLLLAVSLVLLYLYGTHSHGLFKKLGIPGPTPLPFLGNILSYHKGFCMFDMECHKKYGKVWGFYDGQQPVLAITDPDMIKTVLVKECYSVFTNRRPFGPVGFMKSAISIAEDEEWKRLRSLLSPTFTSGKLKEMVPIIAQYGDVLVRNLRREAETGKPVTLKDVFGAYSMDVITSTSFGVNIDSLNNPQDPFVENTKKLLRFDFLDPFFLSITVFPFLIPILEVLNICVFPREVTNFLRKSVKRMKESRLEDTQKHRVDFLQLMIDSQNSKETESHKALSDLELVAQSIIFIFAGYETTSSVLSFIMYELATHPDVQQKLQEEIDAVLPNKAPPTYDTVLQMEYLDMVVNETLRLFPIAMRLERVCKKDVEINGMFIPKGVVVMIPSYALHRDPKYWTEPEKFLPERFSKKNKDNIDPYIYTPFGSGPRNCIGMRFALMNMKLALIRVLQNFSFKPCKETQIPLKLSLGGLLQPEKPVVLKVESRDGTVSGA
Chain of Cytochrome P450 2C19 (P33261 whole entry): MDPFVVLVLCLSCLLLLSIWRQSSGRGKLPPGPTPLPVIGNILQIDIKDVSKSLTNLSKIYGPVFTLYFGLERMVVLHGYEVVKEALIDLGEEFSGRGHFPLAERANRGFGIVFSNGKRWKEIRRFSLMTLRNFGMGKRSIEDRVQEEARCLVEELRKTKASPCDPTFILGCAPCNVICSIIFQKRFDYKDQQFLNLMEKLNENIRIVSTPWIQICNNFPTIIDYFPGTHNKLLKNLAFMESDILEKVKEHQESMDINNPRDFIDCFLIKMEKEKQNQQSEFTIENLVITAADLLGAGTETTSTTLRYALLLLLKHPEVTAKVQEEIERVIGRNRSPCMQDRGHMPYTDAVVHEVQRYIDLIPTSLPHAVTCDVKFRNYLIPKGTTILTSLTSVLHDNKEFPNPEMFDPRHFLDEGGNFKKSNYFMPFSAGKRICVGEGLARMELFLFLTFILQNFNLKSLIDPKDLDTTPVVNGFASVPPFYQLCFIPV
Chain of Cytochrome P450 2C9 (P11712 whole entry): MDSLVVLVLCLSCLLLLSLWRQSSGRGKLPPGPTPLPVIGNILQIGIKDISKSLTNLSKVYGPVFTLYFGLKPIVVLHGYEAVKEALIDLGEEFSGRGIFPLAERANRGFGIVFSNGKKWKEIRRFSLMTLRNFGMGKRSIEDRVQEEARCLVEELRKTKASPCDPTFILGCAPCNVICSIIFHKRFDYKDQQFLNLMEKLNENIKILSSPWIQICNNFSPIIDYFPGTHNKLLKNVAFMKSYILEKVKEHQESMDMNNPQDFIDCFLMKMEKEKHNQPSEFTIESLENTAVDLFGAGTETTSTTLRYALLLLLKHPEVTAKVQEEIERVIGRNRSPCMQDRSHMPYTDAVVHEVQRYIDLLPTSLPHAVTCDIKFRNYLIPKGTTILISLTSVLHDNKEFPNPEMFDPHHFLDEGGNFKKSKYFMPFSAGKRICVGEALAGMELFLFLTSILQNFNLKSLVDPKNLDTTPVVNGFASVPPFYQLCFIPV
Chain of Cytochrome P450 2D6 (P10635 whole entry): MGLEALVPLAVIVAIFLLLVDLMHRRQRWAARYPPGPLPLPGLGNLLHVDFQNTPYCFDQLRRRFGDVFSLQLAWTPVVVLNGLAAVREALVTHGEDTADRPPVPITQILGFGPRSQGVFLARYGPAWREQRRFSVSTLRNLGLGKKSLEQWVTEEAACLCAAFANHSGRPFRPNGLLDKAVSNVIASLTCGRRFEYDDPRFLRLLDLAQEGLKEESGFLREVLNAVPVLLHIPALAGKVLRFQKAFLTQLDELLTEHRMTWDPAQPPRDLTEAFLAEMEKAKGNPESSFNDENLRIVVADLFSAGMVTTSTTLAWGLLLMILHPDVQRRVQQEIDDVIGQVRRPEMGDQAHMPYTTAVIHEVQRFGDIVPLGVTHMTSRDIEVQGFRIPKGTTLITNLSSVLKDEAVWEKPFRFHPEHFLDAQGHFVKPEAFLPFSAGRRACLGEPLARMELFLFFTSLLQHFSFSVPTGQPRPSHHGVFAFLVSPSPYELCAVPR
Chain of Histamine H4 receptor (Homo sapiens) (Q9H3N8 whole entry): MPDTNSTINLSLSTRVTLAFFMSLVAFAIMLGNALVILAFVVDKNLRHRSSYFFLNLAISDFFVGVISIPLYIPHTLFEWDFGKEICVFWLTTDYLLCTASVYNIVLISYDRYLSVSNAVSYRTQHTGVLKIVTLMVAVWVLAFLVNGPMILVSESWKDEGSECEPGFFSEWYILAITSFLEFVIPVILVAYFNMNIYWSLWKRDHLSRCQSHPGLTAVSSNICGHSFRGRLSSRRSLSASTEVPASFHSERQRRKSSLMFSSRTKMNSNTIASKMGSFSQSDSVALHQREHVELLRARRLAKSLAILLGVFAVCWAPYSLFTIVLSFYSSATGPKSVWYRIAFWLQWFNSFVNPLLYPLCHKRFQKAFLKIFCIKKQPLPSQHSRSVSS
Chain of Histamine H2 receptor (Homo sapiens) (P25021 whole entry): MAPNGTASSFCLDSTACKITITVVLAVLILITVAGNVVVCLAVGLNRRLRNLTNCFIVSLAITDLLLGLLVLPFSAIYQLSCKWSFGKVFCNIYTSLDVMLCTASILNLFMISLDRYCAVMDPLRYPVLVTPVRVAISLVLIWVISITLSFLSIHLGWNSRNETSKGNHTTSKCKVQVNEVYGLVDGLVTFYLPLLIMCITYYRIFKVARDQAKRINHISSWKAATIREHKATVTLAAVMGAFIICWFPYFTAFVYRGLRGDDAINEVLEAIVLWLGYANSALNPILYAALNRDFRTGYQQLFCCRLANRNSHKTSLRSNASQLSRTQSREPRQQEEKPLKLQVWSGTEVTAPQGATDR

In the case of `C[C@@H]1CCCN1CCc1ccc(-c2ccc(=O)n(Cc3ccccc3)n2)cc1`, the Ki [1] is reported as 5 nM and the Ki [2] is reported as 18 nM.
With `C[C@@H]1CCCN1CCCOc1ccc(-c2ccc(=O)[nH]n2)cc1` [IRDABISANT] the Ki [2] was 7 nM.
`C[C@@H]1CCCN1CCc1ccc(-c2ccc(=O)[nH]n2)cc1` showed a Ki [1] of 31 nM and a Ki [2] of 43 nM.
For `C[C@@H]1CCCN1CCc1ccc(-c2ccc(=O)n(C)n2)cc1`, the half-life [3] was over 40 min, the Activity [4] was “Active” and the Activity [5] was “inactive”. For the same compound, the ED50 [6] was 0.07 mg/kg, the inhibition [6] was “Dose-dependent effect” and the Activity [7] was 68%. For the same compound, the IC50 [8] was over 30000 nM, the IC50 [9] was over 30000 nM and the Activity [10] was “Non-toxic”. It also gave a half-life [11] of over 40 min, an inhibition [12] of under 30% and a Ki [1] of 7 nM. The IC50 [13] was over 30000 nM, the Time [14] was “Dose-dependent effect” and the Time [15] was 235 min. For the same compound, the Ki [2] was 58 nM, the EC50 [16] was 2 nM and the Kp at 1 h [17] was 6. The AUC(0-inf) [18] was 1650 ng·h/mL, the Vd [19] was 0.6 L/kg and the half-life [20] was 30 min. For the same compound, the Activity [21] was “Active”, the half-life [22] was 25 min and the AUC(0-inf) [23] was 28 ng·h/mL. For the same compound, the IC50 [24] was over 30000 nM, the Cmax [25] was 18 ng/mL and the Time [26] was 161 min. The Activity [27] was “Active”, the IC50 [28] was over 30000 nM and the inhibition [29] was under 30%. It also gave a clearance [30] of 12 mL/min/kg, a bioavailability [31] of under 1% and a Time [32] of 200 min. It also gave an inhibition [33] of under 30%, a half-life [34] of 39 min and an Activity [35] of 98%.
`C[C@@H]1CCCN1CCc1ccc(-c2ccc(=O)n(-c3ccccn3)n2)cc1` gave a Ki [1] of 47 nM and a Ki [2] of 242 nM.
